According to article PMC6752721 (Chembiochem : a European journal of chemical biology, 2019):
Where a SMILES comes first, the peptide text is derived from it. [ ]: non-standard residue; d: D form. The star is where a group is joined. Decanoyl = CCCCCCCCCC(=O)*; Orn = NCCC[C@H](N)C(=O)O; Dap = NC[C@H](N)C(=O)O; NHDecyl = CCCCCCCCCCN*

How the values were obtained:
HeLa cells [1] = assay: Cytosolic entry efficiency of naphthofluorescein; assay type: cell-based; conditions: 10% FBS, flow cytometry; for fold decrease in CPP activity (cellular entry efficiency) relative to peptide 4 / fold increase in CPP activity (cellular entry efficiency) relative to peptide 4: 5 μM NF-labeled peptide, 2 h
HeLa cells [2] = assay: MTT cytotoxicity assay; assay type: cell-based

For `CCCCCCCCCC(=O)NC[C@@H]1NC(=O)[C@H](CCC(N)=O)NC(=O)[C@H](CCCNC(=N)N)NC(=O)[C@H](CCCNC(=N)N)NC(=O)[C@H](CCCNC(=N)N)NC(=O)[C@H](CCCNC(=N)N)NC(=O)[C@H](CCCNC(=N)N)NC1=O` [peptide 14], the “fold decrease in CPP activity (cellular entry efficiency) relative to peptide 4” value (HeLa cells [1]) was roughly 5 fold.
`CCCCCCCCCC(=O)NC[C@@H]1NC(=O)[C@H](CCC(N)=O)NC(=O)[C@H](CCCNC(=N)N)NC(=O)[C@@H](CCCNC(=N)N)NC(=O)[C@H](CCCNC(=N)N)NC(=O)[C@@H](CCCNC(=N)N)NC1=O` [compound 10] (cyclo([Dap](Decanoyl)[dR]R[dR]RQ)) was tested, and the “fold decrease in CPP activity (cellular entry efficiency) relative to peptide 4” value (HeLa cells [1]) was ~ 3 fold.
With `CCCCCCCCCCNC(=O)C[C@@H]1NC(=O)[C@H](CCC(N)=O)NC(=O)[C@H](CCCNC(=N)N)NC(=O)[C@H](CCCNC(=N)N)NC(=O)[C@H](CCCNC(=N)N)NC(=O)[C@H](CCCNC(=N)N)NC1=O` [peptide 17] (cyclo(D(NHDecyl)RRRRQ)) the “reduction of cell viability” value (HeLa cells [2]; ≤25 μM peptide, not concentration-dependent) was ~ 30%, the “effect on cell viability at higher concentrations” value (HeLa cells [2]; ≥50 μM peptide) was “significant loss of HeLa cell viability” and the “fold increase in CPP activity (cellular entry efficiency) relative to peptide 4” value (HeLa cells [1]) was ~ 5 fold. For the same molecule, the “fold more active than CPP12 (cellular entry efficiency)” value (HeLa cells [1]) was 2.8 fold.
For `CCCCCCCCCC(=O)NC[C@@H]1NC(=O)[C@H](CCC(N)=O)NC(=O)[C@@H](CCCNC(=N)N)NC(=O)[C@H](CCCNC(=N)N)NC(=O)[C@@H](CCCNC(=N)N)NC(=O)[C@H](CCCNC(=N)N)NC1=O` [compound 9] (cyclo([Dap](Decanoyl)R[dR]R[dR]Q)), the “fold decrease in CPP activity (cellular entry efficiency) relative to peptide 4” value (HeLa cells [1]) was ~ 3 fold.
For `CCCCCCCCCC(=O)NC[C@@H]1NC(=O)[C@H](CCC(N)=O)NC(=O)[C@H](CCCNC(=N)N)NC(=O)[C@H](CCCNC(=N)N)NC(=O)[C@H](CCCNC(=N)N)NC(=O)[C@H](C)NC1=O` [compound 12] (cyclo(ARRRQ[Dap](Decanoyl))), the “fold decrease in CPP activity (cellular entry efficiency) relative to peptide 4” value (HeLa cells [1]) was ~ 2 fold.
With `CCCCCCCCCC(=O)NCCCC[C@@H]1NC(=O)[C@H](CCC(N)=O)NC(=O)[C@H](CCCNC(=N)N)NC(=O)[C@H](CCCNC(=N)N)NC(=O)[C@H](CCCNC(=N)N)NC(=O)[C@H](CCCNC(=N)N)NC1=O` [peptide 16] (cyclo(K(Decanoyl)RRRRQ)) the “fold increase in CPP activity (cellular entry efficiency) relative to peptide 4” value (HeLa cells [1]) was 1.3 fold.
`CCCCCCCCCC(=O)NCCC[C@@H]1NC(=O)[C@H](CCC(N)=O)NC(=O)[C@H](CCCNC(=N)N)NC(=O)[C@H](CCCNC(=N)N)NC(=O)[C@H](CCCNC(=N)N)NC(=O)[C@H](CCCNC(=N)N)NC1=O` [compound 15] (cyclo([Orn](Decanoyl)RRRRQ)) was tested, and the “fold increase in CPP activity (cellular entry efficiency) relative to peptide 4” value (HeLa cells [1]) was 2 fold.
